Consider 20 compounds from ChEMBL document CHEMBL1275380, “Studies toward the structural optimization of novel thiazolylhydrazone-based potent antitrypanosomal agents” (Bioorg Med Chem, 2010).

Calls of active or inactive are those of the source. The calls are words filed in the database; no cut-off is given here.

For data set [1], the system named is Trypanosoma cruzi. The data set is described as follows: Antitrypanosomal activity against epimastigotes of Trypanosoma cruzi Y assessed as viability after 11 days by trypan blue exclusion assay. It counts as functional, organism-based. As to conditions: 264 h.
The target of data set [2] is Cruzipain (Trypanosoma cruzi) (UniProt P25779). The data set can be described thus: Inhibition of Trypanosoma cruzi cruzaine without pre-incubation. As to conditions: TDE = time-dependent effect.
Data set [3] concerns Trypanosoma cruzi. The data set is described as follows: Antitrypanosomal activity against trypomastigotes of Trypanosoma cruzi Y assessed as viability after 24 hrs by trypan blue exclusion assay. It counts as functional, organism-based.
Data set [4] concerns the target Cruzipain (Trypanosoma cruzi) (UniProt P25779). The data set is described as follows: Inhibition of Trypanosoma cruzi cruzaine at 100 uM pre-incubated for 10 mins.
The target in another data set is Cruzipain (Trypanosoma cruzi, UniProt P25779). The data set can be described thus: Inhibition of Trypanosoma cruzi cruzaine pre-incubated for 10 mins.
A short description of data set [5]: Cytotoxicity against BALB/c mouse Splenocyte assessed as non-cytotoxic concentration after 24 hrs by [3H]-thymidine incorporation assay relative to control. It counts as cell-based. As to conditions: splenocytes, read-out: Activity. For orientation: Incorporation of labelled thymidine or its analogues reports DNA synthesis.
Data set [6] deals with Cruzipain (Trypanosoma cruzi) (UniProt P25779). The data set can be described thus: Inhibition of Trypanosoma cruzi cruzaine in absence of 0.01% Triton X-100.
For data set [7] the target is unchanged. The data set can be described thus: Inhibition of Trypanosoma cruzi cruzaine in presence of 0.01% Triton X-100.
Data set [8] relates to Trypanosoma cruzi. The data set is described as follows: Antitrypanosomal activity against epimastigotes of Trypanosoma cruzi Y assessed as viability at 40 uM after 11 days by trypan blue exclusion assay. It counts as functional. As to conditions: 264 h.
Data set [9] concerns Trypanosoma cruzi. The data set is described as follows: Antitrypanosomal activity against epimastigotes of Trypanosoma cruzi Y assessed as viability at 40 uM after 7 days by trypan blue exclusion assay. It counts as functional. As to conditions: 168 h.
The subject of data set [10] is Trypanosoma cruzi. The data set can be described thus: Antitrypanosomal activity against epimastigotes of Trypanosoma cruzi Y assessed as viability at 40 uM after 15 hrs by trypan blue exclusion assay. In kind it is functional.
Another data set deals with Mus musculus. The data set is described as follows: Toxicity in Swiss mouse assessed as mortality at 100 mg/kg, ip after 72 hrs. As to conditions: in vivo. Also noted: dose 100 mg/kg, route intraperitoneal. In kind it is organism-based.

Cruzipain (Trypanosoma cruzi), sequence (P25779 123-467 limits assumed): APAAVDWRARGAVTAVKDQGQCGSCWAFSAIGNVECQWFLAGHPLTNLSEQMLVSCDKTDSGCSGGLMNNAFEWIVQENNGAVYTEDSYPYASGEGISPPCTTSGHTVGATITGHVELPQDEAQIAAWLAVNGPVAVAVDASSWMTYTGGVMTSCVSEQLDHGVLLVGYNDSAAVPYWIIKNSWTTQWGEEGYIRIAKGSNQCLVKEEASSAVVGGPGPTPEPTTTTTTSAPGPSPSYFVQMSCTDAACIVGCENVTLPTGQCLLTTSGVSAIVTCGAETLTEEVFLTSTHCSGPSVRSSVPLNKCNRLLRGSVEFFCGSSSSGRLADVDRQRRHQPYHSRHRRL
Cruzipain, sequence (P25779 whole entry): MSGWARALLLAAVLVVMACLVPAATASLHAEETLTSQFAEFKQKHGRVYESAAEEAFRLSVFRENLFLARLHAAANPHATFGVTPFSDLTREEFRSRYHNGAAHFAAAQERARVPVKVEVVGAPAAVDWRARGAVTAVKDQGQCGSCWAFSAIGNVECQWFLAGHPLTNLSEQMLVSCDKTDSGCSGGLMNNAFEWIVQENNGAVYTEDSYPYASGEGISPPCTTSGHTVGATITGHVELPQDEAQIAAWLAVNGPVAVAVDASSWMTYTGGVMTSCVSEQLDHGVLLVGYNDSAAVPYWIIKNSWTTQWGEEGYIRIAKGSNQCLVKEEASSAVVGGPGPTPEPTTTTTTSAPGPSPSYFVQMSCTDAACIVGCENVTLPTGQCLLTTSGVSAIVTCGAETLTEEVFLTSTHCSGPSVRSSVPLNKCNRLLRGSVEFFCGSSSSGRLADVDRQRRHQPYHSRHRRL

A word on the IC50: it is the concentration that gives 50% inhibition. By inhibition is commonly meant how much of the control response was suppressed. For `C/C(=N\N=C(\N)S)c1ccc(Cl)c(Cl)c1`, the IC50 with Trypanosoma cruzi [1] worked out at 8.5 µM; in the data set on Trypanosoma cruzi [3], 39.5 µM; on Cruzipain it was 0.1 µM. Moreover, the inhibition result in data set [2] is “tde”; in [4], 96%. For the same compound, in data set [5], the MNTC at 24 h was 1 µg/mL.
As for `CC1S/C(=N/N=C/CSc2ccccc2)NC1=O` (configuration not stated), the IC50 in the data set on Trypanosoma cruzi [1] was found to be 167 µM; in the data set on Trypanosoma cruzi [3], 44.2 µM. The inhibition result in data set [6] and in [7] was “Active” in each case. Also, the inhibition at 40 µM in the data set on Trypanosoma cruzi [8] is 4%. In [4], this compound returned an inhibition of 5%. In addition, the MNTC at 24 h in [5] was over 100 µg/mL.
`O=C1CS/C(=N/N=C/CSc2ccc(Br)cc2)N1`: in the data set with Trypanosoma cruzi [1], the IC50 amounted to 42.9 µM. The inhibition result in [6] and in [7] was “Active” throughout. Further, the inhibition at 40 µM with Trypanosoma cruzi [8] worked out at 31.5%. This compound showed an inhibition in data set [4] of 8%. Also, the MNTC at 24 h in [5] was over 100 µg/mL.
In the case of `O=C1CS/C(=N/N=C/C=C/c2ccccc2)N1`, the IC50 is 2.3 µM in the data set with Trypanosoma cruzi [1] and 10.1 µM in the data set on Trypanosoma cruzi [3]. The inhibition result in [6] and in data set [7] was “Active” each time. The same compound displayed an inhibition in data set [4] of 8%. Besides, the MNTC at 24 h in data set [5] is under 1 µg/mL.
As for `CCC1S/C(=N/N=C/CSc2ccc(Br)cc2)NC1=O` (configuration not stated), in the data set on Trypanosoma cruzi [1], the IC50 turned out to be 26.9 µM. The inhibition at 40 µM with Trypanosoma cruzi [9] stood at 61%; in the data set with Trypanosoma cruzi [10], 0%; with Trypanosoma cruzi [8] it was 77%. The inhibition result in data set [6] and in data set [7] was “Active” each time. In addition, the inhibition in [4] was 38%. The Activity entry with Mus musculus is “Non-toxic”. Moreover, the MNTC at 24 h in data set [5] was over 100 µg/mL.
As for `CCC1S/C(=N/N=C(\C)CSc2ccc(S)cc2)NC1=O` (configuration not stated), the IC50 turned out to be 40.8 µM in the data set on Trypanosoma cruzi [1] and 54.6 µM in the data set on Trypanosoma cruzi [3]. The inhibition result in data set [6] and in data set [7] was “Active” each time. Also, in the data set with Trypanosoma cruzi [8], the inhibition at 40 µM came out at 41%. Besides, the inhibition in data set [4] was 11%. For the same compound, the MNTC at 24 h in data set [5] was over 100 µg/mL.
Turning to `CCC1S/C(=N/N=C(\C)CSc2ccc(Cl)cc2)NC1=O` (configuration not stated), the values for the IC50 in the data set on Trypanosoma cruzi [1] and in the data set with Trypanosoma cruzi [3] were 62.9 µM and 148 µM, respectively. The inhibition result in data set [6] and in [7] was “Active” throughout. In addition, the inhibition at 40 µM in the data set with Trypanosoma cruzi [8] worked out at 24%. The compound also showed an inhibition in data set [4] of 31%. For the same compound, the MNTC at 24 h in data set [5] was over 100 µg/mL.
With `O=C1CS/C(=N/N=C/CSc2ccc(Cl)cc2)N1`, the IC50 is 43.9 µM in the data set with Trypanosoma cruzi [1] and 82.4 µM in the data set on Trypanosoma cruzi [3]. The inhibition result in data set [6] and in data set [7] was “Active” in each case. Moreover, the inhibition at 40 µM in the data set on Trypanosoma cruzi [8] was found to be 8%. Besides, in data set [4], the inhibition came to 11%. The MNTC at 24 h in data set [5] was over 100 µg/mL.
Turning to `CC1S/C(=N/N=C/CCSc2ccc(Cl)cc2)NC1=O` (configuration not stated), the results for the half-maximal inhibitory concentration (IC50) with Trypanosoma cruzi [1] and at Cruzipain were 32.1 µM and 0.2 µM, respectively. Besides, the inhibition entry in data set [6] and in [7] was “Active” throughout. In the data set with Trypanosoma cruzi [8], the inhibition at 40 µM is 10%. For the same compound, the inhibition in [4] is 98%. Further, the MNTC at 24 h in data set [5] was over 100 µg/mL.
In the case of `O=C(Cn1ccnc1[N+](=O)[O-])NCc1ccccc1` [BENZNIDAZOLE], the figures for the inhibition at 40 µM with Trypanosoma cruzi [9], with Trypanosoma cruzi [10] and in the data set on Trypanosoma cruzi [8] were 85%, 43% and 97%, respectively. Also, in the data set on Mus musculus, the Activity entry is listed as “Non-toxic”. Also, the MNTC at 24 h in data set [5] worked out at 25 µg/mL.
Take `CC/C(=N\NC(N)=S)c1cccc(Br)c1`: the MNTC at 24 h in data set [5] came to 1 µg/mL.
For `NC(=S)N/N=C/CCc1ccccc1`, the IC50 in the data set on Trypanosoma cruzi [1] and in the data set on Trypanosoma cruzi [3] was 3.7 µM throughout. Further, the inhibition result in data set [6] and in [7] was “Active” each time. Further, the MNTC at 24 h in data set [5] was under 1 µg/mL.
With `CCC1S/C(=N/N=C(\C)CSc2ccc(C)cc2)NC1=O` (configuration not stated), the IC50 in the data set with Trypanosoma cruzi [1] turned out to be 45.1 µM; in the data set on Trypanosoma cruzi [3] it was 76.9 µM. For the same compound, the inhibition result in data set [6] and in data set [7] was “Active” in each case. The inhibition at 40 µM with Trypanosoma cruzi [8] was 40%. In addition, the inhibition in data set [4] was determined as 22%. Further, the MNTC at 24 h in data set [5] is over 100 µg/mL.
Turning to `CC/C(=N\N=C(\N)S)c1cccc(Br)c1`, the figures for the 50% inhibitory concentration (IC50) with Trypanosoma cruzi [1] and in the data set with Trypanosoma cruzi [3] were 15.4 µM and 11.1 µM, respectively. Further, the results for the inhibition entry in [2] and in data set [4] were “tde” and 92%, respectively.
Turning to `Cc1ccc(SC/C=N/N=C2\NC(=S)C(C)S2)cc1` (configuration not stated), the figures for the IC50 with Trypanosoma cruzi [1] and in the data set on Trypanosoma cruzi [3] were 6.1 µM and 4.5 µM, respectively. Further, the inhibition result in data set [6] and in data set [7] was “Active” in each case. This compound returned an inhibition in data set [4] of 6%. Also, the Activity entry with Mus musculus was “Toxic”. The MNTC at 24 h in [5] was under 1 µg/mL.
Take `CC1S/C(=N/N=C/CCSc2ccccc2)NC1=O` (configuration not stated): the values for the IC50 in the data set on Trypanosoma cruzi [1], in the data set on Trypanosoma cruzi [3] and against Cruzipain were 2.9 µM, 10 µM and 0.4 µM, respectively. The values for the inhibition at 40 µM with Trypanosoma cruzi [9], with Trypanosoma cruzi [10] and in the data set with Trypanosoma cruzi [8] were 100%, 75% and 100%, respectively. Further, the inhibition entry in [6] and in [7] was “Active” in each case. In data set [4], this compound had an inhibition of 93%. Besides, in the data set on Mus musculus, the Activity result is “Non-toxic”. In addition, the MNTC at 24 h in data set [5] was over 100 µg/mL.
Turning to `Cc1ccc(SC/C=N/N=C2\NC(=O)C(C)S2)cc1` (configuration not stated), the results for the IC50 in the data set on Trypanosoma cruzi [1], with Trypanosoma cruzi [3] and on Cruzipain were 6.7 µM, 84.8 µM and 20.4 µM, respectively. Also, the inhibition at 40 µM in the data set with Trypanosoma cruzi [9] came to 97%; with Trypanosoma cruzi [10], 85%; with Trypanosoma cruzi [8], 97%. In addition, the inhibition result in data set [6] and in [7] was “Active” in each case. In addition, the inhibition in data set [4] was 80%. Also, in the data set with Mus musculus, the Activity entry is reported as “Non-toxic”. For the same compound, the MNTC at 24 h in data set [5] is over 100 µg/mL.
Take `CC1S/C(=N/N=C/CCSc2ccccc2)NC1=S` (configuration not stated): the figures for the IC50 with Trypanosoma cruzi [1], with Trypanosoma cruzi [3] and against Cruzipain were 8.1 µM, 2.3 µM and 0.06 µM, respectively. Besides, the inhibition at 40 µM in the data set with Trypanosoma cruzi [9] was determined as 94%. Also, the inhibition result in [6] and in [7] was “Active” throughout. In addition, the inhibition in data set [4] worked out at 92%. Further, in the data set with Mus musculus, the Activity entry is reported as “Toxic”. Further, the MNTC at 24 h in data set [5] was 1 µg/mL.
With `NC(=S)N/N=C/C=C/c1ccccc1`, the results for the IC50 with Trypanosoma cruzi [1] and with Trypanosoma cruzi [3] were 7.3 µM and 7.4 µM, respectively. Besides, the inhibition entry in [6] and in data set [7] was “Active” each time. Besides, the inhibition at 40 µM in the data set with Trypanosoma cruzi [8] worked out at 99%. The inhibition in [4] turned out to be 35%. Moreover, in [5], the MNTC at 24 h was under 1 µg/mL.
On to `NC(=S)N/N=C/CSc1ccccc1`, for which the IC50 amounted to 13.4 µM with Trypanosoma cruzi [1] and 158 µM with Trypanosoma cruzi [3]. The inhibition result in data set [6] and in [7] was “Active” each time. Also, the inhibition at 40 µM in the data set with Trypanosoma cruzi [8] is 100%. This compound also displayed an inhibition in data set [4] of 28%. The Activity result with Mus musculus is listed as “Non-toxic”. Besides, the MNTC at 24 h in data set [5] worked out at 5 µg/mL.
